Test results published in a melting point compilation (Tetko et al.; mined from patent text by program, amines drawn as free bases though some values may be those of a salt).

Point of comparison: `CC(=O)OCc1cc(=O)c(Oc2ccc(Cl)cc2)c(-c2ccc(S(C)(=O)=O)cc2)o1`, melting point 115 °C. Against it:
- COc1c(NCc2cccc(C)c2)cc2oc(=O)[nH]c2c1F — higher, 160 to 161 °C
- COc1ccc(-c2nc(C(F)(F)F)cn2-c2ccc(Br)cc2)cc1 — higher, 140 to 141 °C
- CN1C(=O)CN(C(=O)CCl)C(c2ccccc2)c2cc(Cl)ccc21 (stereo not drawn) — higher, 197 to 200 °C
- CC(=O)Nc1ccc(C=Nc2cc(Cl)c(N=CN(C)C)c(Cl)c2)cc1 — higher, 171 to 173 °C
- N=C(NO)c1ccc2[nH]cc(CCN3C(=O)c4ccccc4C3=O)c2c1 — higher, 168 to 170 °C
- Cn1c(COc2cccc(C(=O)O)c2)nc2ccc(Oc3cccnc3)cc21 — higher, 240 to 245 °C
- CCOC(=O)c1ccc(-c2ccc(OCCCCCCCCCCCCOC(C)=O)cc2)cc1 — lower, 80.1 to 81.5 °C
- COC(=O)Cc1ccc(NC(=O)c2sc3ccc(OC)cc3c2OC(C)C)cc1 — lower, 111 to 113 °C
- Cc1c(-c2ccc(O)cc2)n(Cc2ccc(OCCN3CCCC(C)C3)cc2)c2ccc(O)cc12 (stereo not drawn) — higher, 121 to 123 °C
- CCOC(=O)C(Cc1ccc(OCc2ccccc2)cc1)Oc1ccc(Cl)cc1 (stereo not drawn) — lower, 63 to 64 °C
- Cc1ccc(Cl)c2nc3cccc(C(=O)O)c3nc12 — higher, 255 to 257 °C
- O=C(O)c1ccc(OCCNC(=O)C2Cc3ccccc3N2S(=O)(=O)c2ccc(-c3ccc(F)cc3F)cc2)cc1F (stereo not drawn) — lower, 91 to 94 °C
- CCOc1ccc(-c2cc(C)cn2-c2ccc(S(N)(=O)=O)cc2)cc1 — higher, 135 to 139 °C
- CNC(=O)/C=C/c1cccc(Br)c1 — higher, 147 to 148 °C
- Cc1ccc([N+](=O)[O-])c2[nH]cc(CO)c(=O)c12 — higher, 251 to 255 °C
- Fc1ccc(C2OC3(CCNCC3)N3CCCCC23)cc1 (stereo not drawn) — lower, 112 to 114 °C
- CC(C)(C)OC(=O)N[C@H]1COc2ccccc2N(CC(=O)OCc2ccccc2)C1=O — higher, 122 to 124 °C
- COc1ccc(C2=NN(Cc3ccc([N+](=O)[O-])cc3)C(=O)CC2)cc1OC — higher, 126 °C
- CN1CCc2[nH]c3ccc4sccc4c3c2C1 — higher, 189 °C
- CN(c1cccc2cc(-c3ncc(CC#N)s3)[nH]c12)S(=O)(=O)c1cccs1 — higher, 186 to 187 °C
- CC(=O)c1cn(-c2c(Cl)cc(OC(F)(F)F)cc2Cl)nc1C#N — lower, 106 to 107 °C
- Cc1nc2cc3c(cc2[nH]1)[nH]c(=O)n3C — higher, 300 °C
- O=[N+]([O-])C1CC=CCC1c1ccccc1 (stereo not drawn) — not separable, 114 to 116 °C
- Nc1ccc2oc3c(c2c1)CCCCCC3 — lower, 97 to 98 °C
- CNc1nc(-c2cccc(-c3cccnc3)c2)c2cc(OC)c(OC)cc2n1 — higher, 186 to 188 °C
- O=C(CCl)N[C@H]1CC[C@H](O)CC1 — higher, 149 to 151 °C
- CON=C(c1ccccc1)c1ccc2c(c1)C(C)(C)CCN2CCOc1ccc(CC(OC(C)=O)C(=O)O)cc1 (stereo not drawn) — lower, 64 to 66 °C
- O=C1OC(=O)c2cc3c(cc21)CCOC3 — higher, 156 to 158 °C
- O=C(O)c1ccc(-c2ccc3c(c2)CCN(CCN2CCCC2)C3=O)cc1 — higher, 247 to 249 °C
- O=C1C2CC3=C(CN2C(=O)N1c1ccccc1)N(Cc1ccccc1)CN3 (stereo not drawn) — higher, 227 to 229 °C
- Cc1nc(NCc2ccccn2)n(C)c(=O)c1CCO — higher, 245 °C
- CN1C(=O)NCc2cc(Br)cnc21 — higher, 216 to 217 °C
- CC(Cc1ccc(OCc2ccccc2)cc1)NCC(O)c1cc2ccccc2o1 (stereo not drawn) — not separable, 111 to 122 °C
- COC(=O)c1cc(Cl)c(Cl)c(C2=NOCC2)c1C — lower, 74 to 76 °C
- O=C1N(N(c2ccccc2)c2ccccc2)c2ccccc2C1(Cc1ccncc1)Cc1ccncc1 — higher, 184 to 186 °C
- Cc1cc(C)cc(Sc2[nH]c(C)nc2CO)c1 — higher, 199 to 201 °C
- CCOC(=O)/C=C/C=C/c1ccc(OCc2nc(-c3ccccc3)oc2C)cc1 — higher, 137 to 138 °C
